The text below walks through data of US20230080241A1 (priority 2020, published 2023).

SMILES strings stand for the structures. Where two headings read alike, the source gives them in different places.

By IC50 is commonly meant the concentration needed to halve the response being measured.

One series concerns Plasmodium falciparum. As to the kind of experiment: in vitro asexual blood stage growth of Plasmodium falciparum. Type of series: cell-based. As to conditions: for IC50: Plasmodium falciparum, P. falciparum in vitro. As to the method:
Presented herein is experiment data representing tranexamic acid as an antimalarial druggable scaffold. The results shown below show the efficacy of tranexamic acid against both Plasmodium falciparum and P. berghei across the parasite lifecycle. The data herein illustrates the ability of tranexamic acid to act as an antimicrobial agent, and more particularly, in some embodiments, as an antimalarial drug. Experiments were conducted to test, in vitro, the ability of tranexamic acid to impair the asexual intraerythrocytic development of P. falciparum. All of the symptoms associated with malaria infection are caused by the asexual blood stages, which makes them a logical therapeutic target.
Up to six different concentrations of tranexamic acid plus a negative control (carrier with no drug) were tested in a highly synchronous culture. A two-fold serial dilution starting at 200 mM was prepared, replenishing the drug daily for four consecutive days (i.e. two complete intraerythrocytic cycles).
FIG. 1 illustrates in vitro asexual blood stage growth at day 1 after 1 dose of tranexamic acid (TXA). Values are the mean of three technical replicates, and error bars represent the standard deviation. FIG. 2 illustrates in vitro asexual blood stage growth at day 3 after 3 doses of tranexamic acid (TXA). Values are the mean of three technical replicates, and error bars represent the standard deviation. FIG. 3 illustrates in vitro IC50 of tranexamic acid after three daily doses. Values are the mean of three technical replicates, relative to the minimal effect (i. e. the parasitemia from the samples with no drug). Error bars represent the standard deviation. Morphological defective parasites could be observed at day 4 in the two lowest tested concentrations (i.e. 12.5 and 6.25 mM). Healthy segmented schizonts were selected from the sample mock-treated in the absence of tranexamic acid (0 mM).

Series [1] concerns Plasmodium berghei ANKA mCherry. Format: in vivo, mice (outbred CD1). The settings on record: mice. How it is done: In addition to in vitro experiments to test the ability of tranexamic acid to impair the asexual intraerythrocytic development of P. falciparum, experiments were conducted to test, in vivo, the ability of tranexamic acid to cure asynchronized blood stage infections of Plasmodium berghei ANKA mCherry in mice. P. berghei is a species in the genus Plasmodium subgenus Vinckeia and is a protozoan parasite that causes malaria in rodents. Due to its ability to infect rodents and relative ease of genetic engineering, P. berghei is a popular model organism for the study of human malaria, and was thus used in the present disclosure.
Recipient mice (n=5/group; 3 groups) received blood from a donor mouse containing asynchronous asexual blood stages of P. berguei. Parasitemia was monitored and when it reached at least 5% mice were treated intravenously (i.v.) with 20, 10, or 0 mg of tranexamic acid in a phosphate-buffered saline (PBS) carrier. Blood smears from tail snips were prepared every 24 hours, or until the humane endpoint criteria was reached, to monitor parasitemia.
FIG. 4 illustrates in vivo asexual blood stage growth of P. berghei after the injection of the PBS carrier. […]

With `NC[C@H]1CC[C@H](C(=O)O)CC1` [tranexamic acid], the clearance of infection entry with Plasmodium falciparum (100 mM, after 48 hours, two doses) was “cleared the infection”; in the series on Plasmodium falciparum (200 mM, after 24 hours, single dose, FIG. 1), “completely cleared the infection”. Moreover, in the series on Plasmodium falciparum (12.5 and 6.25 mM, day 4, some parasites arrested at schizont-like morphology), the parasite morphology result is “morphological defects could be observed”. Moreover, the IC50 in the series on Plasmodium falciparum (72 h, after 3 daily doses, FIG. 3, read-out: IC50 at day 3) turned out to be 11.4 mM; with Plasmodium falciparum (drug replenished on a daily basis, read-out: in vitro IC50), 11.4 mM. The growth delay entry in the series on Plasmodium falciparum (some of the tested concentrations, rings and early trophozoites on day 3 (72 hours after first dose), FIG. 2) is “a growth delay was observed”. The “equivalent in vitro concentration based on estimated volemia” value is given as “approximately 37 mM” in series [1] (10 mg injection i.v.) and approximately 75 mM in series [1] (20 mg injection i.v.).
